Reference: ChEMBL document CHEMBL1201862, “PubChem BioAssay data set” (2004)
Activity calls are given as the source filed them. Cut-off read from the data, not from the text of the source: actives have a measured IC50 and inactives only a lower limit.

Target: Envelope glycoprotein gp160 (Human immunodeficiency virus 1, UniProt Q6QLK5)
Assay: cell-free HIV fusion peptide-binding blockers – biochemical, uHTS, fluorescence dequenching, […] (AID 1986)

Envelope glycoprotein gp160, sequence (Q6QLK5 whole entry, the tested form may be a part): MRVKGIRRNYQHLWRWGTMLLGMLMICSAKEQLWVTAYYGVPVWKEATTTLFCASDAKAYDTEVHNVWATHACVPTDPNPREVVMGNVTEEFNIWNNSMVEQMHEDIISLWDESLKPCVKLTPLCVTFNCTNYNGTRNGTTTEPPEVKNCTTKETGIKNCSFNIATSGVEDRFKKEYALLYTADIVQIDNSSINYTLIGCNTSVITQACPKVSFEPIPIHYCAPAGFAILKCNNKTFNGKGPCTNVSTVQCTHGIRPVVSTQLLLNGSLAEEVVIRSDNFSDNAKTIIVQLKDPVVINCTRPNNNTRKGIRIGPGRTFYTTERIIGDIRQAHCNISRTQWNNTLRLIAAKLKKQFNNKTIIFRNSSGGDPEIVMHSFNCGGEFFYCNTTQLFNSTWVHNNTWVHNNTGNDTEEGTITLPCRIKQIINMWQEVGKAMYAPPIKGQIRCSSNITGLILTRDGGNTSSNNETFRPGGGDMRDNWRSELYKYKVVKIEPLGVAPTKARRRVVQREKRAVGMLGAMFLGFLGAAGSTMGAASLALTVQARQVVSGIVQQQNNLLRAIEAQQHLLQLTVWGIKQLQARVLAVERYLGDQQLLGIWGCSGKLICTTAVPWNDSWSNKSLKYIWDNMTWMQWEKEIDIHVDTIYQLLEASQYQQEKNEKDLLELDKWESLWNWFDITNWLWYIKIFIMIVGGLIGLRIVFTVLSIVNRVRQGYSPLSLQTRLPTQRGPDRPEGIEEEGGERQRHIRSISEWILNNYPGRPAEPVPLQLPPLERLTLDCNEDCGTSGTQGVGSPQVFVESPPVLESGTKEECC

**Q.** COc1cc(C(=O)Nc2scc(-c3ccc(Br)cc3)c2C(=O)O)cc(OC)c1OC was tested. Which IC50 did it give?
**A.** 33.2 µM (active)

**Q.** For CC(/C=C1\SC(=S)N(C(C(=O)O)c2ccccc2)C1=O)=C\c1ccccc1 (centres undefined), which IC50 is on record?
**A.** 46 µM (active)

**Q.** For O=C(N/N=C/c1cc(Br)c(O)c(Br)c1)c1cc2c(ccc3ccccc32)o1, which IC50 is on record?
**A.** 15 µM (active)

**Q.** For COc1ccc(C(=O)Oc2ccc(/C=N/Nc3ccc(Cl)c(C(=O)O)c3)cc2OC)cc1, which IC50 is on record?
**A.** 19.3 µM (active)
